Where two headings read alike, the source gives them in different places.
What was measured:
Test in all cases: biochemical
Design in all cases: DiscoveRx KINOMEscan active site-directed competition binding; percent of control kinase bound to immobilised ligand
[1] = target: PAK6 (Homo sapiens, UniProt Q9NQU5)
[2] = target: T1, NEK3 (Homo sapiens, UniProt P51956)
T1 sequence (P51956 1-506): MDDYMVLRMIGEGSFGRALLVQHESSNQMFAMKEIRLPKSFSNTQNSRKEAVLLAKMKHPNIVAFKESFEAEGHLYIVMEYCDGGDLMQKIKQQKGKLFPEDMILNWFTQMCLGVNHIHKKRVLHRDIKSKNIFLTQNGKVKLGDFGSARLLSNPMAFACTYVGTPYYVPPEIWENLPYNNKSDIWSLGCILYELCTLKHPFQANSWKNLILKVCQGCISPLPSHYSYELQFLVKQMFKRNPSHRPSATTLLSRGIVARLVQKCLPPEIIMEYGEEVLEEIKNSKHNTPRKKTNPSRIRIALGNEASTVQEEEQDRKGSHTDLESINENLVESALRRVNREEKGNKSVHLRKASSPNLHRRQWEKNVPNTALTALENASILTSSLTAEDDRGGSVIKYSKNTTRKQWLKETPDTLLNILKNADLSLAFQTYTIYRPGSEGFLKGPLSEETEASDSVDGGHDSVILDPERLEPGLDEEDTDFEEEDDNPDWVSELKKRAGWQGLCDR

[3] = target: T2, NEK10 (Homo sapiens, UniProt Q6ZWH5)
T2 sequence (Q6ZWH5 1-1172): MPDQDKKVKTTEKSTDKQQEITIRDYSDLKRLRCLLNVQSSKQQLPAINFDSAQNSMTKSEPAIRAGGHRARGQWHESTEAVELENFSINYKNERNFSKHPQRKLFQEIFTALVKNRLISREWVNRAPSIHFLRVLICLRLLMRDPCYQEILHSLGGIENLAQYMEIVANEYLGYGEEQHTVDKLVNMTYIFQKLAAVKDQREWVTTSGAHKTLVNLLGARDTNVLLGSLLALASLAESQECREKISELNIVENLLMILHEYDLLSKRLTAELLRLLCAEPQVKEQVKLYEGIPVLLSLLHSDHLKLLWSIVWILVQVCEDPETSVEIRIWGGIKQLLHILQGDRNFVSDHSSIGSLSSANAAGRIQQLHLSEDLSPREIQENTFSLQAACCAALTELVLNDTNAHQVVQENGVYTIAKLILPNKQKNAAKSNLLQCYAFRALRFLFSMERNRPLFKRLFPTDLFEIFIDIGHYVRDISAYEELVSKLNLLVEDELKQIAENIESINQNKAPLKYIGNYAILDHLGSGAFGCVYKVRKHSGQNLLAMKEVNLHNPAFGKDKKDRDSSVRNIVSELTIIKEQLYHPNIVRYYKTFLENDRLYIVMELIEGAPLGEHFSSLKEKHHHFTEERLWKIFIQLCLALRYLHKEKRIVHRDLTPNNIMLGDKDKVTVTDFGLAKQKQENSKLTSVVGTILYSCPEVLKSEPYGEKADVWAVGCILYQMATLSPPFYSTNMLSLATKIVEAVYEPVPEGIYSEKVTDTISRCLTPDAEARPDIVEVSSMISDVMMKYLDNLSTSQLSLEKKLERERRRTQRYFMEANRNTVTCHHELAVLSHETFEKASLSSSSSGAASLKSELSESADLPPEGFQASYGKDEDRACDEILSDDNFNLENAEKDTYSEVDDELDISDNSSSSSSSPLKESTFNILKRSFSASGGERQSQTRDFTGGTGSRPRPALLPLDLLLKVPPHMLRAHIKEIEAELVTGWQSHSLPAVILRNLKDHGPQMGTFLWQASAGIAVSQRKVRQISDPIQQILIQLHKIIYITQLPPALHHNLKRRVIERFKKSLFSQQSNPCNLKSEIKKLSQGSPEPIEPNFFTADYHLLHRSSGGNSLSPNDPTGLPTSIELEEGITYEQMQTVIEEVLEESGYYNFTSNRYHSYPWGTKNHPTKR

[4] = target: T3, MAP4K3 (Homo sapiens, UniProt Q8IVH8)
T3 sequence (Q8IVH8 1-894): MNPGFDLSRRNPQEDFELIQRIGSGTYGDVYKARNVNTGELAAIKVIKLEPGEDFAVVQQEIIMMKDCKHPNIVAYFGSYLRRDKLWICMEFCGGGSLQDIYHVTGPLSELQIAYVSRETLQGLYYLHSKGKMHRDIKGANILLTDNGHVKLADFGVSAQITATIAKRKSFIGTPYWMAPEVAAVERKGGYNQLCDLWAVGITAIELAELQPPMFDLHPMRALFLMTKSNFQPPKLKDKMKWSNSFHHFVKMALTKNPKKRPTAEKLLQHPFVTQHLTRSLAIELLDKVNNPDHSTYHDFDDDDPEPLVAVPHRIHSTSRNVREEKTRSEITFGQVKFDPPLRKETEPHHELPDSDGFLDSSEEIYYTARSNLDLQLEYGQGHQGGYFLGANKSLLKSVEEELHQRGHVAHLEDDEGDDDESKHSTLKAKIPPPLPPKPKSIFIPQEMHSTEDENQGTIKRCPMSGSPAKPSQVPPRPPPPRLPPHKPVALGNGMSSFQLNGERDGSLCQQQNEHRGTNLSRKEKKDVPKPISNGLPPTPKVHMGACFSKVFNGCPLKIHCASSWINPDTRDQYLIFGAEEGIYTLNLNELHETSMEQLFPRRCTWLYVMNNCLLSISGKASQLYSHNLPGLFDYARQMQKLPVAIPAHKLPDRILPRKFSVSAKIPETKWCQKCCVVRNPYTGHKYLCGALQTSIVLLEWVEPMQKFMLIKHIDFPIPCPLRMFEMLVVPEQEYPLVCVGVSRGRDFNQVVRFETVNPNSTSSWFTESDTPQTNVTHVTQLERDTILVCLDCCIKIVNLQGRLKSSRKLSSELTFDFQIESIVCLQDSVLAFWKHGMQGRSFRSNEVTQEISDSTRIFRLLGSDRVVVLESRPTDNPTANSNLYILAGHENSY

[5] = read-out: Talazoparib (BMN 673) / %Ctrl @ 10000nM
[6] = read-out: Olaparib / %Ctrl @ 10000nM
[7] = read-out: Niraparib (MK-4827) / %Ctrl @ 10000nM
[8] = read-out: Rucaparib / %Ctrl @ 10000nM, binding competition, % of control

PAK6, sequence (Q9NQU5 whole entry): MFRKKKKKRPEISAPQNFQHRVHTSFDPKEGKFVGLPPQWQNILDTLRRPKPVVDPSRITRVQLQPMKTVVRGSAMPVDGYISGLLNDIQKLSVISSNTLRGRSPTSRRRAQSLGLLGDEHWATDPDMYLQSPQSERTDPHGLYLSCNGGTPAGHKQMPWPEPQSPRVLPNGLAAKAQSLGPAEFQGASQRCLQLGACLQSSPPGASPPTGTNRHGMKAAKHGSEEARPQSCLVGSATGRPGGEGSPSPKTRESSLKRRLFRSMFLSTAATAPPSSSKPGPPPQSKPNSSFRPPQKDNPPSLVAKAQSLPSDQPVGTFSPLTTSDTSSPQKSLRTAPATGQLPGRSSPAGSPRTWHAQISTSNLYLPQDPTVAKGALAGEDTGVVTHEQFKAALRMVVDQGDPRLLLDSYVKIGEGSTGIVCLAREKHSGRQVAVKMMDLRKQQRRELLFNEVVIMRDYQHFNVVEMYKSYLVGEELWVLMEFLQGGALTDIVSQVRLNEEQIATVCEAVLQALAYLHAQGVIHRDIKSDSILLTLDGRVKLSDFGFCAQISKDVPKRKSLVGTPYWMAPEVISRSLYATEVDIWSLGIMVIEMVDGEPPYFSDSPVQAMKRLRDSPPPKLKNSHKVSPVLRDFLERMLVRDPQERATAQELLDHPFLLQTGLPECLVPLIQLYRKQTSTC

SMILES: Cn1ncnc1[C@H]1c2n[nH]c(=O)c3cc(F)cc(c23)N[C@@H]1c1ccc(F)cc1 [Talazoparib]
- percent of control binding at 10 µM [1, 5]: 90%
- percent of control binding at 10 µM [2, 5]: 66%
- percent of control binding at 10 µM [3, 5]: 100%
- percent of control binding at 10 µM [4, 5]: 100%

SMILES: O=C(c1cc(Cc2n[nH]c(=O)c3ccccc23)ccc1F)N1CCN(C(=O)C2CC2)CC1 [Olaparib]
- percent of control binding at 10 µM [1, 6]: 87%
- percent of control binding at 10 µM [2, 6]: 81%
- percent of control binding at 10 µM [3, 6]: 78%
- percent of control binding at 10 µM [4, 6]: 100%

SMILES: NC(=O)c1cccc2cn(-c3ccc([C@@H]4CCCNC4)cc3)nc12 [Niraparib]
- percent of control binding at 10 µM [1, 7]: 93%
- percent of control binding at 10 µM [2, 7]: 88%
- percent of control binding at 10 µM [3, 7]: 68%
- percent of control binding at 10 µM [4, 7]: 84%

SMILES: CNCc1ccc(-c2[nH]c3cc(F)cc4c3c2CCNC4=O)cc1 [Rucaparib]
- percent of control binding at 10 µM [1, 8]: 96%
- percent of control binding at 10 µM [2, 8]: 86%
- percent of control binding at 10 µM [3, 8]: 14%
- percent of control binding at 10 µM [4, 8]: 91%
